Results as given in patent US8513205B2, “Potent chimeric NRTI-NNRTI bifunctional inhibitors of HIV-1 reverse transcriptase” (Yale University, priority 2008, dated 2013).
pIC50: −log10 of the molar value. Read-outs that look alike come from different tables or passages of the source.

Tests used:
HIV-1 RT [1] = biological target: T1, HIV-1 RT (Human immunodeficiency virus type 1 group M subtype B, UniProt P03366); assay: Steady-state competition assay, inhibition of single nucleotide incorporation by HIV-1 RT; format: biochemical
T1 construct: heterodimeric p66/p51 wild-type HIV-1 RT; His tag (histidine tag) (C); made in house
Method: dTTP and dGTP were purchased from GE Biosciences. Oligonucleotide primers and template were synthesized and purified using 20% denaturing gel-electrophoresis. […] Labeling and annealing of primer/templates were performed as described previously. Murakami, et al., J. Biol. Chem. 2003, 278, 36403-36409. Expression and Purification of HIV-1 RT.
C-terminal histidine tagged heterodimeric p66/p51 wild-type HIV-1 RT was expressed and purified as described previously (Kerr and Anerson, Biochemistry, 1997, 36, 14064-14070) using a clone generously provided by Stephen Hughes, Paul Boyer, and Andrea Ferris (Fredrick Cancer Research and Development Center, Fredrick, Md.).
DMSO concentrations were kept constant at less than 2%. DMSO alone was added as a no inhibitor control for each set of experiments. Reactions were initiated with the addition of 5 μM dNTP and 10 mM MgCl2 and were quenched after 15 minutes at 37° C. with 0.3 M EDTA. All concentrations represent final concentrations after mixing. Reaction products were subjected to 20% denaturing polyacrylamide gel-electrophoresis and quantitated on a Bio-Rad Molecular Imager FX. Product formation was plotted as a function of inhibitor concentration and fitted to a hyperbola to generate IC50 curves. IC50 values are defined as the concentration of inhibitor that inhibits steady-state single nucleotide incorporation by 50%.

HIV-1 RT [2] = biological target: T1, HIV-1 RT; assay: Incorporation assay under single turnover conditions (gel, FIG. 7); format: biochemical; conditions: 30 min, with Mg++; for incorporation into primer opposite template A: D23/D36mer, primer for T incorporation, no dTTP; for incorporation into primer opposite template C: D24/D36mer, primer for G incorporation, no dGTP
Method: Controls for both primer/templates include 0 time points (lanes 1 and 4) and incubation for 30 min. with no Mg^++ (lanes 2 and 5).
Incorporation experiments were performed under single turnover conditions; 50 μM d4U-TP-4PEG-TMC and 10 mM MgCl2 were mixed with 250 nM RT (active sites) and 50 nM 5′-labeled primer/template to initiate the reaction. Negative controls were performed under identical conditions without MgCl2. The reaction was allowed to proceed for 30 minutes at 37° C., after which the reaction was quenched with 0.3 M EDTA. Reaction products were subjected to 20% denaturing polyacrylamide gel-electrophoresis and analyzed on a Bio-Rad Molecular Imager FX.

[3] = inhibition of dGTP incorporation opposite template C, D24/D36mer primer-template, read-out: IC50 incorrect base pair
[4] = inhibition of dTTP incorporation opposite template A, D23/D36mer primer-template, read-out: IC50 correct base pair

| Structure (SMILES) | fold lower potency relative to parent TMC-derivative (HIV-1 RT [1]; correct base pair, D23/D36mer) [fold] | pIC50 (HIV-1 RT [1]; [3]) | pIC50 (HIV-1 RT [1]; [4]) | fold improvement relative to d4T-TP (HIV-1 RT [1]; correct base pair, D23/D36mer) [fold] | fold improvement relative to the TMC-derivative (HIV-1 RT [1]; correct base pair, D23/D36mer) | incorporation into primer opposite template A (HIV-1 RT [2]; listed as d4U-TP-4PEG-TMC) | incorporation into primer opposite template A (HIV-1 RT [2]; listed as d4UTP-4PEG-TMC) | incorporation into primer opposite template C (HIV-1 RT [2]; listed as d4U-TP-4PEG-TMC) | incorporation into primer opposite template C (HIV-1 RT [2]; listed as d4UTP-4PEG-TMC) | fold improvement in potency relative to TMC-4PEG-OH (HIV-1 RT [1]; correct base pair, D23/D36mer) [fold] |
| --- | --- | --- | --- | --- | --- | --- | --- | --- | --- | --- |
| Cc1cc(C#CCOCCOCCOCCOCCO)cc(C)c1Oc1ccnc(Nc2ccc(C#N)cc2)n1 [TMC-4PEG-OH, E, 4-(4-{4-[3-(2-{2-[2-(2-Hydroxy-ethoxy)-ethoxy]-ethoxy}-ethoxy)-prop-1-ynyl]-2,6-dimethyl-phenoxy}-pyrimidin-2-ylamino)-benzonitrile] | 4 | 7.54 | 7.31 |  |  |  |  |  |  |  |
| Cc1cc(C#CCOCCOCCOCCOCCOCC#Cc2cn(C3C=CC(COP(=O)(O)OP(=O)(O)OP(=O)(O)O)O3)c(=O)[nH]c2=O)cc(C)c1Oc1ccnc(Nc2ccc(C#N)cc2)n1 (centres unmarked) [1c, d4U-propynyl-4-PEG-propynyl-TMC-120 Triphosphate] |  | 7.42 | 8.52 | > 500 | 4-5 fold | formation of an elongated primer chain terminated with the bifunctional monophosphate | incorporation of the bifunctional-TP | not the D24/36mer primer-template | no product |  |
| Cc1cc(C#CCOCCOCCOCCOCCOCC#Cc2cn(C3C=CC(CO)O3)c(=O)[nH]c2=O)cc(C)c1Oc1ccnc(Nc2ccc(C#N)cc2)n1 (centres unmarked) [1b, d4U-propynyl-4-PEG-propynyl-TMC-120] |  | 7.46 | 7.80 |  |  |  |  |  |  | 3 |
